In ChEMBL document CHEMBL4665642, “Anticancer profile of newly synthesized BRAF inhibitors possess 5-(pyrimidin-4-yl)imidazo[2,1-b]thiazole scaffold” (Bioorg Med Chem, 2019):

Assays:
Type in all cases: functional
Conditions in all cases: read-out: Activity
PC-3 = test: Cytotoxicity against human PC-3 cells assessed as cell viability at 10 uM incubated for 48 hrs by sulforhodamine B assay relative to control
MDA-MB-231 = test: Cytotoxicity against human MDA-MB-231 cells assessed as cell viability at 10 uM incubated for 48 hrs by sulforhodamine B assay relative to control
HCT-116 = test: Cytotoxicity against human HCT-116 cells assessed as cell viability at 10 uM incubated for 48 hrs by sulforhodamine B assay relative to control
SF-539 = test: Cytotoxicity against human SF-539 cells assessed as cell viability at 10 uM incubated for 48 hrs by sulforhodamine B assay relative to control
NCI-H23 = test: Cytotoxicity against human NCI-H23 cells assessed as cell viability at 10 uM incubated for 48 hrs by sulforhodamine B assay relative to control
RXF 393 = test: Cytotoxicity against human RXF 393 cells assessed as cell viability at 10 uM incubated for 48 hrs by sulforhodamine B assay relative to control
SNB-19 = test: Cytotoxicity against human SNB-19 cells assessed as cell viability at 10 uM incubated for 48 hrs by sulforhodamine B assay relative to control
RPMI-8226 = test: Cytotoxicity against human RPMI-8226 cells assessed as cell viability at 10 uM incubated for 48 hrs by sulforhodamine B assay relative to control
ACHN = test: Cytotoxicity against human ACHN cells assessed as cell viability at 10 uM incubated for 48 hrs by sulforhodamine B assay relative to control
SK-MEL-2 = test: Cytotoxicity against human SK-MEL-2 cells assessed as cell viability at 10 uM incubated for 48 hrs by sulforhodamine B assay relative to control
IGROV-1 = test: Cytotoxicity against human IGROV-1 cells assessed as cell viability at 10 uM incubated for 48 hrs by sulforhodamine B assay relative to control
UO-31 = test: Cytotoxicity against human UO-31 cells assessed as cell viability at 10 uM incubated for 48 hrs by sulforhodamine B assay relative to control
Hs-578T = test: Cytotoxicity against human HS-578T cells assessed as cell viability at 10 uM incubated for 48 hrs by sulforhodamine B assay relative to control
SK-MEL-28 = test: Cytotoxicity against human SK-MEL-28 cells assessed as cell viability at 10 uM incubated for 48 hrs by sulforhodamine B assay relative to control
SK-MEL-5 = test: Cytotoxicity against human SK-MEL-5 cells assessed as cell viability at 10 uM incubated for 48 hrs by sulforhodamine B assay relative to control
MCF7 = test: Cytotoxicity against human MCF7 cells assessed as cell viability at 10 uM incubated for 48 hrs by sulforhodamine B assay relative to control
NCI-H226 = test: Cytotoxicity against human NCI-H226 cells assessed as cell viability at 10 uM incubated for 48 hrs by sulforhodamine B assay relative to control
MOLT-4 = test: Cytotoxicity against human MOLT-4 cells assessed as cell viability at 10 uM incubated for 48 hrs by sulforhodamine B assay relative to control
TK-10 = test: Cytotoxicity against human TK-10 cells assessed as cell viability at 10 uM incubated for 48 hrs by sulforhodamine B assay relative to control
M14 = test: Cytotoxicity against human M14 cells assessed as cell viability at 10 uM incubated for 48 hrs by sulforhodamine B assay relative to control
SN12C = test: Cytotoxicity against human SN12C cells assessed as cell viability at 10 uM incubated for 48 hrs by sulforhodamine B assay relative to control
OVCAR-5 = test: Cytotoxicity against human OVCAR-5 cells assessed as cell viability at 10 uM incubated for 48 hrs by sulforhodamine B assay relative to control
HCC 2998 = test: Cytotoxicity against human HCC 2998 cells assessed as cell viability at 10 uM incubated for 48 hrs by sulforhodamine B assay relative to control
OVCAR-3 = test: Cytotoxicity against human OVCAR-3 cells assessed as cell viability at 10 uM incubated for 48 hrs by sulforhodamine B assay relative to control
SNB-75 = test: Cytotoxicity against human SNB-75 cells assessed as cell viability at 10 uM incubated for 48 hrs by sulforhodamine B assay relative to control
HOP-92 = test: Cytotoxicity against human HOP-92 cells assessed as cell viability at 10 uM incubated for 48 hrs by sulforhodamine B assay relative to control
U-251 = test: Cytotoxicity against human U-251 cells assessed as cell viability at 10 uM incubated for 48 hrs by sulforhodamine B assay relative to control
SR = test: Cytotoxicity against human SR cells assessed as cell viability at 10 uM incubated for 48 hrs by sulforhodamine B assay relative to control
HOP-62 = test: Cytotoxicity against human HOP-62 cells assessed as cell viability at 10 uM incubated for 48 hrs by sulforhodamine B assay relative to control
CAKI-1 = test: Cytotoxicity against human CAKI-1 cells assessed as cell viability at 10 uM incubated for 48 hrs by sulforhodamine B assay relative to control
COLO 205 = test: Cytotoxicity against human COLO 205 cells assessed as cell viability at 10 uM incubated for 48 hrs by sulforhodamine B assay relative to control
OVCAR-8 = test: Cytotoxicity against human OVCAR-8 cells assessed as cell viability at 10 uM incubated for 48 hrs by sulforhodamine B assay relative to control
786-0 = test: Cytotoxicity against human 786-0 cells assessed as cell viability at 10 uM incubated for 48 hrs by sulforhodamine B assay relative to control
UACC-257 = test: Cytotoxicity against human UACC-257 cells assessed as cell viability at 10 uM incubated for 48 hrs by sulforhodamine B assay relative to control
SF-295 = test: Cytotoxicity against human SF-295 cells assessed as cell viability at 10 uM incubated for 48 hrs by sulforhodamine B assay relative to control
HCT-15 = test: Cytotoxicity against human HCT-15 cells assessed as cell viability at 10 uM incubated for 48 hrs by sulforhodamine B assay relative to control
NCI-H322M = test: Cytotoxicity against human NCI-H322M cells assessed as cell viability at 10 uM incubated for 48 hrs by sulforhodamine B assay relative to control
HCT-29 = test: Cytotoxicity against human […] cells assessed as cell viability at 10 uM incubated for 48 hrs by sulforhodamine B assay relative to control
A549 = test: Cytotoxicity against human A549 cells assessed as cell viability at 10 uM incubated for 48 hrs by sulforhodamine B assay relative to control
DU-145 = test: Cytotoxicity against human DU-145 cells assessed as cell viability at 10 uM incubated for 48 hrs by sulforhodamine B assay relative to control
LOX IMVI = test: Cytotoxicity against human LOX IMVI cells assessed as cell viability at 10 uM incubated for 48 hrs by sulforhodamine B assay relative to control

## O=S(=O)(NCCNc1nccc(-c2c(-c3cccc(F)c3)nc3sccn23)n1)c1ccc(Br)cc1
PC-3
  viability at 10 µM: 51%
MDA-MB-231
  viability at 10 µM: 69.7%
HCT-116
  viability at 10 µM: 33.9%
SF-539
  viability at 10 µM: 76.4%
NCI-H23
  viability at 10 µM: 72.6%
RXF 393
  viability at 10 µM: 72.7%
SNB-19
  viability at 10 µM: 59.3%
RPMI-8226
  viability at 10 µM: 58%
ACHN
  viability at 10 µM: 30.2%
SK-MEL-2
  viability at 10 µM: 71.7%
IGROV-1
  viability at 10 µM: 8.47%
UO-31
  viability at 10 µM: 21.2%
Hs-578T
  viability at 10 µM: 63.6%
SK-MEL-28
  viability at 10 µM: 69.1%
SK-MEL-5
  viability at 10 µM: 31.5%
MCF7
  viability at 10 µM: 23.5%
NCI-H226
  viability at 10 µM: 41.2%
MOLT-4
  viability at 10 µM: 35.7%
TK-10
  viability at 10 µM: 68.8%
M14
  viability at 10 µM: 52.3%
SN12C
  viability at 10 µM: 42.9%
OVCAR-5
  viability at 10 µM: 83.6%
HCC 2998
  viability at 10 µM: 79.5%
OVCAR-3
  viability at 10 µM: 62.4%
SNB-75
  viability at 10 µM: 75.3%
HOP-92
  viability at 10 µM: 76.7%
U-251
  viability at 10 µM: 53.4%
SR
  viability at 10 µM: 31.7%
HOP-62
  viability at 10 µM: 83.3%
CAKI-1
  viability at 10 µM: 35.1%
COLO 205
  viability at 10 µM: 36.4%
OVCAR-8
  viability at 10 µM: 45.5%
786-0
  viability at 10 µM: 50.6%
UACC-257
  viability at 10 µM: 82%
SF-295
  viability at 10 µM: 58.7%
HCT-15
  viability at 10 µM: 29.2%
NCI-H322M
  viability at 10 µM: 61%
HCT-29
  viability at 10 µM: 28.2%
A549
  viability at 10 µM: 34.1%
DU-145
  viability at 10 µM: 52.5%
LOX IMVI
  viability at 10 µM: 38.5%

## O=S(=O)(NCCNc1nccc(-c2c(-c3cccc(F)c3)nc3sccn23)n1)c1ccc(F)cc1
PC-3
  viability at 10 µM: 51.4%
MDA-MB-231
  viability at 10 µM: 76.6%
HCT-116
  viability at 10 µM: 40%
SF-539
  viability at 10 µM: 83.2%
NCI-H23
  viability at 10 µM: 79.3%
RXF 393
  viability at 10 µM: 68.9%
SNB-19
  viability at 10 µM: 67.4%
RPMI-8226
  viability at 10 µM: 63.4%
ACHN
  viability at 10 µM: 35.8%
SK-MEL-2
  viability at 10 µM: 67.2%
IGROV-1
  viability at 10 µM: 11.3%
UO-31
  viability at 10 µM: 23.2%
Hs-578T
  viability at 10 µM: 68%
SK-MEL-28
  viability at 10 µM: 81.1%
SK-MEL-5
  viability at 10 µM: 35.4%
MCF7
  viability at 10 µM: 22%
NCI-H226
  viability at 10 µM: 45.6%
MOLT-4
  viability at 10 µM: 41.1%
TK-10
  viability at 10 µM: 80.4%
M14
  viability at 10 µM: 67.8%
SN12C
  viability at 10 µM: 49.2%
OVCAR-5
  viability at 10 µM: 92.5%
HCC 2998
  viability at 10 µM: 80.8%
OVCAR-3
  viability at 10 µM: 67.2%
SNB-75
  viability at 10 µM: 67.7%
HOP-92
  viability at 10 µM: 84.8%
U-251
  viability at 10 µM: 58.4%
SR
  viability at 10 µM: 38%
HOP-62
  viability at 10 µM: 80.1%
CAKI-1
  viability at 10 µM: 41.3%
COLO 205
  viability at 10 µM: 39.5%
OVCAR-8
  viability at 10 µM: 47.3%
786-0
  viability at 10 µM: 58.7%
UACC-257
  viability at 10 µM: 79.1%
SF-295
  viability at 10 µM: 67.5%
HCT-15
  viability at 10 µM: 32.2%
NCI-H322M
  viability at 10 µM: 64%
HCT-29
  viability at 10 µM: 28.7%
A549
  viability at 10 µM: 32.1%
DU-145
  viability at 10 µM: 52.4%
LOX IMVI
  viability at 10 µM: 42.8%

## O=S(=O)(NCCCNc1nccc(-c2c(-c3cccc(F)c3)nc3sccn23)n1)c1ccc(F)cc1
PC-3
  viability at 10 µM: 58.9%
MDA-MB-231
  viability at 10 µM: 94.2%
HCT-116
  viability at 10 µM: 59.4%
SF-539
  viability at 10 µM: 115%
NCI-H23
  viability at 10 µM: 83.7%
RXF 393
  viability at 10 µM: 85%
SNB-19
  viability at 10 µM: 95.9%
RPMI-8226
  viability at 10 µM: 51%
ACHN
  viability at 10 µM: 64.2%
SK-MEL-2
  viability at 10 µM: 76.6%
IGROV-1
  viability at 10 µM: 36.9%
UO-31
  viability at 10 µM: 38.8%
Hs-578T
  viability at 10 µM: 90.1%
SK-MEL-28
  viability at 10 µM: 96.9%
SK-MEL-5
  viability at 10 µM: 47.3%
MCF7
  viability at 10 µM: 70.1%
NCI-H226
  viability at 10 µM: 56.2%
MOLT-4
  viability at 10 µM: 47.1%
TK-10
  viability at 10 µM: 99.7%
M14
  viability at 10 µM: 59.4%
SN12C
  viability at 10 µM: 71.5%
OVCAR-5
  viability at 10 µM: 130%
HCC 2998
  viability at 10 µM: 116%
OVCAR-3
  viability at 10 µM: 83.5%
SNB-75
  viability at 10 µM: 98.5%
HOP-92
  viability at 10 µM: 102%
U-251
  viability at 10 µM: 90.6%
SR
  viability at 10 µM: 95.8%
HOP-62
  viability at 10 µM: 101%
CAKI-1
  viability at 10 µM: 57.8%
COLO 205
  viability at 10 µM: 43.7%
OVCAR-8
  viability at 10 µM: 49.8%
786-0
  viability at 10 µM: 73.6%
UACC-257
  viability at 10 µM: 112%
SF-295
  viability at 10 µM: 92.7%
HCT-15
  viability at 10 µM: 44.5%
NCI-H322M
  viability at 10 µM: 100%
HCT-29
  viability at 10 µM: 46.2%
A549
  viability at 10 µM: 74%
DU-145
  viability at 10 µM: 84.5%
LOX IMVI
  viability at 10 µM: 56%
